Measured values from publication PMC6378217, “The lysyl oxidase like 2/3 enzymatic inhibitor, PXS‐5153A, reduces crosslinks and ameliorates fibrosis” (Journal of Cellular and Molecular Medicine, 2018).

What was measured:
Recombinant rat LOXL2 = target: T1, Recombinant rat LOXL2 (Rattus norvegicus, UniProt B5DF27); assay: Amplex-Red fluorometric enzymatic activity assay, recombinant rat LOXL2; assay type: biochemical; conditions: 30 minute pre-incubation; average of at least three experiments
T1 construct: made in house; host or cells: HEK-293 clones provided by Dr. Fernando Rodríguez Pascual
T1 sequence (B5DF27 26-776): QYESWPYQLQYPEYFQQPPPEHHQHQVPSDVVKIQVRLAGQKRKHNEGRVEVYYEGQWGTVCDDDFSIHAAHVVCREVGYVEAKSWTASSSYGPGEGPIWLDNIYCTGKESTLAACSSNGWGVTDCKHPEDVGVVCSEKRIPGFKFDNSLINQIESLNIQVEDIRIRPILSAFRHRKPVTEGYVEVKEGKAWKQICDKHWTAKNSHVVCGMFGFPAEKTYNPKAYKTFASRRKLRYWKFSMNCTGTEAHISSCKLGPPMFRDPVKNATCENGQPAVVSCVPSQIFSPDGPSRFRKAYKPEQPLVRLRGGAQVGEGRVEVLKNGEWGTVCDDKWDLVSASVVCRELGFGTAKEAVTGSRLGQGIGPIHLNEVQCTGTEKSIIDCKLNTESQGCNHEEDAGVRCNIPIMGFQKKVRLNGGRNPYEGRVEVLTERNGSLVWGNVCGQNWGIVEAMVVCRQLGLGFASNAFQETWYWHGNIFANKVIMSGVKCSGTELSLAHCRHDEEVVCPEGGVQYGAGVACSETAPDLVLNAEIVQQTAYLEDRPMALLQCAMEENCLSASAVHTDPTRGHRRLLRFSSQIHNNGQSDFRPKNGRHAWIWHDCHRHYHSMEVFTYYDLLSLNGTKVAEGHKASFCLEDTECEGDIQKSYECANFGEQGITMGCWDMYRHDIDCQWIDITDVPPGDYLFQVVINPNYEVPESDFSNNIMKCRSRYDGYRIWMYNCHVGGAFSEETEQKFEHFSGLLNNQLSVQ
Protocol: (§1) The measurement of the enzymatic activity of all lysyl oxidase family members was based on the detection of hydrogen peroxide with an Amplex‐Red oxidation assay, as described in Zhou et al26 Recombinant human semicarbazide sensitive amine oxidase (SSAO/VAP1), diamine oxidase (DAO) and monoamine oxidases A and B (MAO‐A and MAO‐B) assays were performed as previously described.27 For detailed enzymatic procedures, see supporting information.
(§2) The measurement of the enzymatic activity of all lysyl oxidase family members was based on the detection of hydrogen peroxide with an Amplex-Red oxidation assay, as described in Zhou et al.[1]; miniaturised in 384 well format, with the appropriate combination of substrate and assay buffer for each individual enzyme. After a 30 minute pre-incubation of the enzyme at 37 °C with the test compound (or with different incubation times for the time-dependency assay), one volume of reaction mixture containing 120 μM Amplex Red (AR) (Life Technologies), 1.5 U/mL horseradish peroxidase (HRP) (Sigma-Aldrich) and the specific substrate was added to each sample. The relative fluorescence units (RFU) were then measured every 2.5 minutes for 30 minutes at 37°C, excitation 565 nm and emission 590, on a BMG Clariostar Microplate Reader. […]

Recombinant dog LOXL2 = target: T2, Recombinant dog LOXL2 (Canis lupus familiaris, UniProt A0A8I3P9Y5); assay: Amplex-Red fluorometric enzymatic activity assay, recombinant dog LOXL2; assay type: biochemical; conditions: 30 minute pre-incubation; average of at least three experiments
T2 construct: made in house; host or cells: HEK-293 clones provided by Dr. Fernando Rodríguez Pascual
T2 sequence (A0A8I3P9Y5 1-777): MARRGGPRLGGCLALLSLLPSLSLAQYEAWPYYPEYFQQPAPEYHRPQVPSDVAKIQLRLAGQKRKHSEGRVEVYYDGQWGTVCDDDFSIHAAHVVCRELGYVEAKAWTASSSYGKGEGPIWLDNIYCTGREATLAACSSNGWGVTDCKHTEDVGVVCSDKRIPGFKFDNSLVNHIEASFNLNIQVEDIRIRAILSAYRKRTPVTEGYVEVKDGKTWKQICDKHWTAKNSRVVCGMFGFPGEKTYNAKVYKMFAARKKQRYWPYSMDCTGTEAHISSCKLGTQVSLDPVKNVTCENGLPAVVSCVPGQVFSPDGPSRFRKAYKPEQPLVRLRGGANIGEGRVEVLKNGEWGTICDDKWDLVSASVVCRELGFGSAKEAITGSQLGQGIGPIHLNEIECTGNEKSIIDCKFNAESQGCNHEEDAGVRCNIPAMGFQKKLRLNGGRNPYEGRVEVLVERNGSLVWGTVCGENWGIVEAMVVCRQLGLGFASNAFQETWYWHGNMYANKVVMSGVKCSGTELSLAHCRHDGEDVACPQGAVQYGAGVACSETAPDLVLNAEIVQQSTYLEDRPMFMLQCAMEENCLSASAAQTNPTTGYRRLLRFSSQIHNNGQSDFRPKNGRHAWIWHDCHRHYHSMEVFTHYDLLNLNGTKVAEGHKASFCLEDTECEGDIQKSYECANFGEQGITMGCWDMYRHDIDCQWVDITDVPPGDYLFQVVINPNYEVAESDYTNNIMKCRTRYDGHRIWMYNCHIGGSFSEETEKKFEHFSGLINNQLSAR
Protocol: as §1, §2

Recombinant human LOXL4 = target: T3, Recombinant human LOXL4 (Homo sapiens, UniProt Q96JB6); assay: Amplex-Red fluorometric enzymatic activity assay, recombinant human LOXL4; assay type: biochemical; conditions: 30 minute pre-incubation; average of at least three experiments
T3 construct: obtained from Dr. Fernando Rodríguez Pascual, university of Madrid, Spain (academic provider, not a vendor)
T3 sequence (Q96JB6 25-756): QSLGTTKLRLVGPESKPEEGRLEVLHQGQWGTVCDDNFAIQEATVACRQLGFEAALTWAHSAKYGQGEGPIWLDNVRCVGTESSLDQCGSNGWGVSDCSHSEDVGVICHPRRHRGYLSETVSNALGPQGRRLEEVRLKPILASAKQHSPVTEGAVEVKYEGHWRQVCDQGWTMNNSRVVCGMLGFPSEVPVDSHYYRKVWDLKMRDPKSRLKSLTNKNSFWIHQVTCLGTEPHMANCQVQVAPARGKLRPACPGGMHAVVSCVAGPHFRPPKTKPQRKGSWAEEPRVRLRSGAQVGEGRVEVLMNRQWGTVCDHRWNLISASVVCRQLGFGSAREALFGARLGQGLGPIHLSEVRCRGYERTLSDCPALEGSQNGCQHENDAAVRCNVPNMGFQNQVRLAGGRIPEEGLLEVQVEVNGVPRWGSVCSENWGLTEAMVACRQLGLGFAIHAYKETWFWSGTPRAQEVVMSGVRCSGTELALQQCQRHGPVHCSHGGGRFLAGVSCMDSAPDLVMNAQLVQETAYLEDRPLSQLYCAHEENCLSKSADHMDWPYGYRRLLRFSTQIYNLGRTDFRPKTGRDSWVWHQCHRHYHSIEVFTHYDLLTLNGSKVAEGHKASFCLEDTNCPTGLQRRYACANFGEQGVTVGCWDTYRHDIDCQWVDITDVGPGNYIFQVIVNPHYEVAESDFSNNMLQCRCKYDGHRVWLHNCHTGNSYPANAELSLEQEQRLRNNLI
Protocol: as §1, §2

LOXL2 [1] = target: T4, LOXL2 (Homo sapiens, UniProt Q9Y4K0); assay: Substrate competition (putrescine), LOXL2; assay type: biochemical; conditions: increasing concentrations of the substrate
T4 sequence (Q9Y4K0 26-774): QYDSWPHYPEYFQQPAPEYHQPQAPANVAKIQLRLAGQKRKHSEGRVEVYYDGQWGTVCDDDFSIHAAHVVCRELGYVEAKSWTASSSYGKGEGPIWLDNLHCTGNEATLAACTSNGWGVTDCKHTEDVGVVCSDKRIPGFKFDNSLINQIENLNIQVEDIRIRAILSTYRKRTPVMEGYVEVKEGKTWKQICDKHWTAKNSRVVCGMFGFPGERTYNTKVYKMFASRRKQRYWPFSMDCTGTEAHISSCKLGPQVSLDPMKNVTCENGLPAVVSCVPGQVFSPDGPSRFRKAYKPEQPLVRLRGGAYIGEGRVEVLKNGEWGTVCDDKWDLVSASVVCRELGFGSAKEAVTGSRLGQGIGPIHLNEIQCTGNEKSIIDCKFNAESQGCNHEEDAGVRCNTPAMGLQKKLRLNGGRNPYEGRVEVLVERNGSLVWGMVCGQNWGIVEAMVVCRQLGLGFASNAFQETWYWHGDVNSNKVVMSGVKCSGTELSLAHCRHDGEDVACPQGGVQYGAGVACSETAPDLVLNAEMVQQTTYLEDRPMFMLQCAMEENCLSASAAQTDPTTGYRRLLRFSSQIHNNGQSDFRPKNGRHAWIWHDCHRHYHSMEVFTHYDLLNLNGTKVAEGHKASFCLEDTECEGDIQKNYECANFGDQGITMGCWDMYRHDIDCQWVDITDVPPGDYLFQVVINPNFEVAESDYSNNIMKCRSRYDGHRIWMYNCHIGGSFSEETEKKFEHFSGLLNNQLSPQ
Protocol: The measurement of the enzymatic activity of all lysyl oxidase family members was based on the detection of hydrogen peroxide with an Amplex-Red oxidation assay, as described in Zhou et al.[1]; miniaturised in 384 well format, with the appropriate combination of substrate and assay buffer for each individual enzyme. After a 30 minute pre-incubation of the enzyme at 37 °C with the test compound (or with different incubation times for the time-dependency assay), one volume of reaction mixture containing 120 μM Amplex Red (AR) (Life Technologies), 1.5 U/mL horseradish peroxidase (HRP) (Sigma-Aldrich) and the specific substrate was added to each sample. The relative fluorescence units (RFU) were then measured every 2.5 minutes for 30 minutes at 37°C, excitation 565 nm and emission 590, on a BMG Clariostar Microplate Reader. All the substrates were used at concentrations corresponding to their Km towards the corresponding enzyme, or with a range of different concentrations for the substrate competition experiments.
The measurement of substrate competition was based on the release of hydrogen peroxide as previously described. The target enzyme was incubated with the inhibitor, and differing concentrations of the substrate (putrescine) in reaction mixture and measured.

Adenosine A1 = Adenosine A1 (Homo sapiens, UniProt P30542); assay: Eurofins Hit Profiling Screen; assay type: binding; conditions: 10 μmol/L
Sequence of Adenosine A1 (P30542 whole entry): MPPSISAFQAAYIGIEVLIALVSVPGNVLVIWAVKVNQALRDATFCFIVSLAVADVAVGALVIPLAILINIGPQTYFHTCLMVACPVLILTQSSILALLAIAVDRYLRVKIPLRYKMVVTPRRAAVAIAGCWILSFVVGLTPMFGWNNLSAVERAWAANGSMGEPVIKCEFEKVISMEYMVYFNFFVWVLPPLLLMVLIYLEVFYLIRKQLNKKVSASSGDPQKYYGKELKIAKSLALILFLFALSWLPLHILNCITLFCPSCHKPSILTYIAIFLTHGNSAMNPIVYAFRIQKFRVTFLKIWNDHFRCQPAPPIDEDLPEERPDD

Adrenergic α2A = Adrenergic α2A (Homo sapiens, UniProt P08913); assay: Eurofins Hit Profiling Screen; assay type: binding; conditions: 10 μmol/L
Sequence of Adrenergic α2A (P08913 whole entry): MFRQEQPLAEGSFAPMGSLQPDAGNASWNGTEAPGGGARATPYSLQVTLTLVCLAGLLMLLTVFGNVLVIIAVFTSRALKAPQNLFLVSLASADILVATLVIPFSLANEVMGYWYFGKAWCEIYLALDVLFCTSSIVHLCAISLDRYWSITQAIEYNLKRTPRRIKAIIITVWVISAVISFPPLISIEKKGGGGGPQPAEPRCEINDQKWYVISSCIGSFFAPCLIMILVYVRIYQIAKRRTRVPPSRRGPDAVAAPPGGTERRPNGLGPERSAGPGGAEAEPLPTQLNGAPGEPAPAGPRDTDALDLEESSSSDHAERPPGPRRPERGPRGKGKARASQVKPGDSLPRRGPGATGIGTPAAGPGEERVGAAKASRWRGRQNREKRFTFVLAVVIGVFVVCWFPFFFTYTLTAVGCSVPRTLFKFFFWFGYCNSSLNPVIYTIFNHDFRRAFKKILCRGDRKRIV

Dopamine D1 = Dopamine D1 (Homo sapiens, UniProt P21728); assay: Eurofins Hit Profiling Screen; assay type: binding; conditions: 10 μmol/L
Sequence of Dopamine D1 (P21728 whole entry): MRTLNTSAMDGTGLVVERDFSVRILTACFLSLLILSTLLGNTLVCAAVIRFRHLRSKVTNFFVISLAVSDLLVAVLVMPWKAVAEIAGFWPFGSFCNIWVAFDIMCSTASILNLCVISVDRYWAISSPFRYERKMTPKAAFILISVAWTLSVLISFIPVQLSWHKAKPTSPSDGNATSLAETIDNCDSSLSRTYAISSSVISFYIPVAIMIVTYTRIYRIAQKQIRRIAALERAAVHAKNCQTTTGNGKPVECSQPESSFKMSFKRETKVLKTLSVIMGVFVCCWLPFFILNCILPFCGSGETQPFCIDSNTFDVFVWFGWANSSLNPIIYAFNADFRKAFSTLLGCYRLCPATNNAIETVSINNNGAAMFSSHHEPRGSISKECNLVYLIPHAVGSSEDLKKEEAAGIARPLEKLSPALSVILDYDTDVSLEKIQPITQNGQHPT

Nicotinic Acetylcholine = assay: Eurofins Hit Profiling Screen; assay type: binding; conditions: 10 μmol/L
Potassium Channel hERG = Potassium Channel hERG (Homo sapiens, UniProt Q12809); assay: Eurofins Hit Profiling Screen; assay type: binding; conditions: 10 μmol/L
Sequence of Potassium Channel hERG (Q12809 whole entry): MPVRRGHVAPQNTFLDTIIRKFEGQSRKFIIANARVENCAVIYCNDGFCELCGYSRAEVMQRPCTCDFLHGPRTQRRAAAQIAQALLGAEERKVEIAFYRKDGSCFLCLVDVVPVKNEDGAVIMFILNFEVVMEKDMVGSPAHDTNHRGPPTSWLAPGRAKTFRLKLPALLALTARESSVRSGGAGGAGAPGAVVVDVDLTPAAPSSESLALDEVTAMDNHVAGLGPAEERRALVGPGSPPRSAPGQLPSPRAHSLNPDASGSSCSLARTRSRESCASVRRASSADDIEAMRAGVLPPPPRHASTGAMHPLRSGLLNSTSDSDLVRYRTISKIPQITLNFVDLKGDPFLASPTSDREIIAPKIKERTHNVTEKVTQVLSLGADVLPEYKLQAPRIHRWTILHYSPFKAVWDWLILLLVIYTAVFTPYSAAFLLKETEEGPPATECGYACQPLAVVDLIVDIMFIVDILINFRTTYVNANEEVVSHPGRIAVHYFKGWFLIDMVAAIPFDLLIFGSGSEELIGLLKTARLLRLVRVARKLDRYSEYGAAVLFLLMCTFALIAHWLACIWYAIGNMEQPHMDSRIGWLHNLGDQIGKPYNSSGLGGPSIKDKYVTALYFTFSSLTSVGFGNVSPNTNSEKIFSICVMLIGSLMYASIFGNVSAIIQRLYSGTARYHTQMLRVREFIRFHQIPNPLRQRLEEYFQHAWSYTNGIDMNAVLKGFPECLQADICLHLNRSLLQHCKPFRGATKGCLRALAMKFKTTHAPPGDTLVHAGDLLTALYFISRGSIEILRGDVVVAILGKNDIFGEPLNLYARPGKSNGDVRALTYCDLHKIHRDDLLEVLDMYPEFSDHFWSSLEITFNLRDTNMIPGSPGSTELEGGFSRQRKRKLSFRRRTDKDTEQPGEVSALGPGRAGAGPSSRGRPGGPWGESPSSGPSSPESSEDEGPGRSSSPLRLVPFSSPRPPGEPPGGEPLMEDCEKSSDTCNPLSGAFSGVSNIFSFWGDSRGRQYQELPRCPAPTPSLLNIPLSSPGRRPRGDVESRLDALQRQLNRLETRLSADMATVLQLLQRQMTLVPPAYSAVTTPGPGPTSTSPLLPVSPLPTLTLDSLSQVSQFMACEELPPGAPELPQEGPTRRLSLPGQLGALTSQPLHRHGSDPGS

Prostanoid EP4 = Prostanoid EP4 (Homo sapiens, UniProt P35408); assay: Eurofins Hit Profiling Screen; assay type: binding; conditions: 10 μmol/L
Sigma σ1 = Sigma σ1 (Homo sapiens, UniProt Q99720); assay: Eurofins Hit Profiling Screen; assay type: binding; conditions: 10 μmol/L
Sequence of Sigma σ1 (Q99720 whole entry): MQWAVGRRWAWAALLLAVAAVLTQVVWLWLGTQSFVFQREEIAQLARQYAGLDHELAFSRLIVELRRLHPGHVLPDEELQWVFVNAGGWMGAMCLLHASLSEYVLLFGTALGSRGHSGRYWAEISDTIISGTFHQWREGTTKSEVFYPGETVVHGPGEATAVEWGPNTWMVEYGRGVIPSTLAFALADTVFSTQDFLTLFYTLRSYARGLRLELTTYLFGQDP

Sodium Channel, Site 2 = assay: Eurofins Hit Profiling Screen; assay type: binding; conditions: 10 μmol/L
LOXL2 [2] = target: T4, LOXL2; assay: In vitro crosslinking assay; assay type: biochemical; set-up: purchased R&D Systems; conditions: 200 nmol/L PXS-5153A, 20 nmol/L rhLOXL2 daily for 5 days, crosslinks on day 7
Protocol: About 200 μL of 3 mg/mL collagen (rat tail, type I, Thermo Fisher) was combined with 800 μL of 50 mmol/L sodium borate buffer (pH 8.2) and 20 nmol/L of rhLOXL2 (with or without inhibitor, PXS‐5153A 200 nmol/L). Enzyme/inhibitor were replenished daily for 5 days. Samples were incubated at 37°C and crosslinks were extracted on day 7.
About 10mg of freeze‐dried samples were reduced with NaBH4. Pellet then underwent acid hydrolysis in 6 mol/L HCl at 100°C for 24 hours. Hydroxyproline and crosslinks were extracted from the hydrolysate using an automated solid phase extraction system (Gilson GX‐271 ASPECA system). After extraction and drying, hydroxyproline and crosslinks were analysed by UHPLC‐ESI‐MS/MS on a Thermo Dionex UHPLC and TSQ Endura triple quad mass spectrometer. Total protein was quantified in the samples using a commercially available kit (QuickZyme Biosciences, Leiden, The Netherlands). For detailed procedures, see supporting information.

Cc1c(-c2cccc(S(=O)(=O)N(C)C)c2)c2ncccc2n1C/C(F)=C/CN.Cl.Cl [PXS-5153A]
IC50 (Recombinant rat LOXL2): 15 nM
pIC50 ± SD (Recombinant rat LOXL2): 7.8 ± 0
IC50 (Recombinant dog LOXL2): 9 nM
pIC50 ± SD (Recombinant dog LOXL2): 8.04 ± 0.05
IC50 (Recombinant human LOXL4): 104 nM
pIC50 ± SD (Recombinant human LOXL4): 7 ± 0.1
substrate competition (LOXL2 [1]): in a competitive manner
% inhibition (Adenosine A1): 9%
% inhibition (Adrenergic α2A): 97%
% inhibition (Dopamine D1): 6%
% inhibition (Nicotinic Acetylcholine): 16%
% inhibition (Potassium Channel hERG): 47%
% inhibition (Prostanoid EP4): 11%
% inhibition (Sigma σ1): 8%
% inhibition (Sodium Channel, Site 2): 57%
crosslink formation DHLNL, HLNL, PYD, DPD (LOXL2 [2]): prevented all crosslink formation
